Data taken from patent US10500178B2, “LTB4 inhibition to prevent and treat human lymphedema” (The Board of Trustees of the Leland Stanford Junior …, priority 2015, dated 2019).

Experiments:
[1] = test system: acquired lymphedema surgically induced in the tails of female C57BL/6J mice; test: mouse-tail model of acquired lymphedema (tail volume, histology); assay type: in vivo; conditions: for amelioration of lymphedema (serial tail-volume measurements over 24d): therapies started on post-surgery d3 (late LTB4 antagonism)
Description: Surgical induction of experimental lymphatic vascular insufficiency. […] Briefly, a full-thickness circumferential incision of the skin was made 16 mm distal to the base of the mouse tail under anesthesia. Lymphatic trunks were ablated through controlled, limited cautery application under the surgical microscope. For surgical controls (sham animals), the skin incision alone was performed without lymphatic cautery.
(§1) All small molecule drugs were administered through daily intraperitoneal injection.
Tail volume quantitation. Tail-volume measurements at each designated time were quantified by observers blinded to the treatment status of the subjects. Tail volumes were calculated through a digital photographic technique pre-operatively, and post-operatively (d3, d9, d14, d20, and d24), using an Olympus D520 Zoom digital camera at SHQ resolution at a fixed distance from the subject (37 cm), as previously described. Tail volumes were derived from the measurement of the tail diameter using the truncated cone approximation. Microlymphangiography was performed by injecting FITC-dextran (size: 2000 kDa) subcutaneously into mouse tails on post-surgery d24. Images were taken 20 minutes after injection.
Viral particles were mixed with Lipofectamine 2,000 (5% final vol/vol, Invitrogen) before injection, to increase transduction efficiency. qRT-PCR, immunofluorescence and fluorescence in situ hybridization were used to evaluate the silencing efficiency in the mouse tail skin 24d after surgery.

HLECs [2] = test: HLEC lymphangiogenesis (tube formation, migration, wound healing, sprouting); assay type: cell-based, human; conditions: for HLEC lymphangiogenesis in the presence of S1P, shS1pr1, shDll4 or DAPT: LTB4-impaired or S1P-treated HLEC cultures
Description: Tube formation assay. Matrigel (BD Matrigel Basement Membrane Matrix Growth Factor Reduced, Phenol Red Free) was thawed on ice overnight, dispersed into 48-well plates (100 μl per well) and allowed to polymerize for 30 minutes at 37° C. Serum starved HLECs were seeded on the Matrigel at a density of 1×10^4 cells per well. Images of four representative fields were taken 10 hrs later. ImageJ software was used to determine total cellular cord length. Migration assay. Cellular migration was evaluated using a modified Boyden chamber assay. Briefly, 2×10^4 serum-starved HLECs in 250 μl serum free medium were seeded in the upper chamber of the trans-well. 750 μl of serum free ECM containing various drugs was placed in the lower chamber. Ten hours later, migrated cells were stained with a modified Giemsa solution (Sigma-Aldrich) for quantification. Wound healing assay. 6×10^5 HLECs were seeded on an Easy Slide (Millipore) the day before the experiment and allowed to form a fully confluent monolayer, and then cells were serum starved for 12 hrs. A 200 μl pipet tip was used to scratch a straight line across the middle of the cell monolayer. Cell debris was removed through PBS washing. Images were taken immediately after the scratch and the same windows were imaged again 12 hrs later. The rate of cell migration was calculated as the average percent wound closure from at least 5 independent experiments using ImageJ software. Fibrin gel sprouting assay. HLECs were first coated overnight onto the Cytodex-3 beads with an approximate concentration of 400 cells per bead. On the following day, the microbeads were transferred to 2.0 mg/ml fibrinogen solution containing 0.15 units/ml of aprotinin. Later, 0.625 units/ml thrombin was added to the mixture to gelatinize the fibrin gel. Endothelial sprouts (vessel outgrowth) were observed within 3 days of culture using phase micrographic images and quantified as number of vessels per bead.

VEGFR3, Vegfc, Vegfd = test: lymphangiogenic factor levels in HLECs (qRT-PCR, Western blot); assay type: cell-based, human; conditions: 400 nM LTB4, 100 ng/ml S1P, 25 μM DAPT
Description: (§2) Western Blot HLECs were lysed with RIPA buffer containing protease and phosphatase inhibitors. Lysates were sonicated briefly and centrifuged. The supernatant was collected and protein concentration was determined by BCA assay. 60 µg of protein were resolved on a 10% SDS-PAGE gel, transferred to a nitrocellulose membrane, blocked with 5% milk and probed with one of the following antibodies: anti-Sphk1 (3297,Cell Signaling); antip-Sphk1(SP1641, ECM Biosciences); anti-NICD (ab8925,Abcam), anti-VEGFR3 (AF743,R&D); anti-DLL4 (ab7280, Abcam). Actin was used to normalize the total protein. Immunofluorescence Immunofluorescence staining was performed using the following primary antibodies: anti-5-LO (3289, Cell Signaling); anti-MPO (ab45977, Abcam); Anti-CD68 (ab22506, Abcam); anti-Prox1(ab101851, Abcam); anti-NICD (ab8925, Abcam), anti-EphrinB2 (AF496,R&D); anti-VEGFR3 (AF743,R&D); anti-Hey1(ab22614, Abcam); Alexa-Fluor-555 Phalloidin (8953,Cell Signaling); anti-DIG(11093274910, Sigma-Aldrich). Negative controls with isotype IgG were run in parallel. Images were acquired by Zeiss 710 confocal microscopy and analyzed using ImageJ software.
Quantitative RT-PCR. Quantitative PCR (qRT-PCR) was performed using FastStart SYBR Green (Roche) on a Lightcycler 480. mRNA expression relative to GAPDH mRNA levels were calculated using the delta-delta threshold cycle (ΔΔCT) method. PCR microarrays were purchased from Qiagen: RT2 Profiler PCR Array 384-Well Format, Mouse Angiogenesis PAMM-024ZA) and VEGF Signaling (330231 PAMM-091ZA). […]

HLECs [3] = test: LTB4-mediated HLEC apoptosis; assay type: cell-based, human
HLECs [4] = test: fibrin gel sprouting assay; assay type: cell-based, human; conditions: 400 nM LTB4
Description: Fibrin gel sprouting assay. HLECs were first coated overnight onto the Cytodex-3 beads with an approximate concentration of 400 cells per bead. On the following day, the microbeads were transferred to 2.0 mg/ml fibrinogen solution containing 0.15 units/ml of aprotinin. Later, 0.625 units/ml thrombin was added to the mixture to gelatinize the fibrin gel. Endothelial sprouts (vessel outgrowth) were observed within 3 days of culture using phase micrographic images and quantified as number of vessels per bead.

HLECs [5] = test: trans-well migration assay; assay type: cell-based, human; conditions: 400 nM LTB4
Description: Migration assay. Cellular migration was evaluated using a modified Boyden chamber assay. Briefly, 2×10^4 serum-starved HLECs in 250 μl serum free medium were seeded in the upper chamber of the trans-well. 750 μl of serum free ECM containing various drugs was placed in the lower chamber. Ten hours later, migrated cells were stained with a modified Giemsa solution (Sigma-Aldrich) for quantification.

Notch (NICD, DLL4) = test: Western blot of NICD and DLL4 in HLECs; assay type: cell-based, human
Description: as §2

[6] = test system: lymphatic vessel formation; test: Matrigel plug assay (LYVE1, VEGFR3 staining); assay type: in vivo, mouse; conditions: Matrigel plugs in SCID mice
Description: Matrigel plug assay. SCID mice (NOD.Cg-Prkdcscid I/2rgtmlWjl/SzJ, The Jackson Laboratory) of 4-6 weeks of age were used for Matrigel plug injection. Two 250 μl Matrigel plugs were subcutaneously injected into the dorsal surface of the mice. Plugs were recovered with the adjacent subcutaneous tissue 14d later. Tissue was then embedded in paraffin and sectioned for staining.

HLECs [7] = test: NICD and filopodia histology of HLECs; assay type: cell-based, human
Description: as §2

[8] = test system: Notch transcriptional activity; test: CSL luciferase reporter assay in HLECs; assay type: cell-based, human
Description: pG13-6-CSL luciferase assay. CSL reporter activity was determined as described previously. HLECs (5.0×105) were […] and transfected with both 1 μg CSL luciferase reporter ([…]) and 10 ng Renilla luciferase pRL-SV40 (Promega) using Nucleofactor (Lonza). Luciferase and Renilla activity were then determined with Dual-Luciferase® Reporter Assay System (Promega) and Berthold dual-injection illuminometer.

p-Sphk1 = test: Western blot of p-SphK1 in HLECs; assay type: cell-based, human; conditions: exogenous LTB4 (400 nM)
Description: as §2

HLECs [9] = test: tube formation assay on Matrigel; assay type: cell-based, human; conditions: 400 nM LTB4; 10 μM U75302+LTB4
Description: Tube formation assay. Matrigel (BD Matrigel Basement Membrane Matrix Growth Factor Reduced, Phenol Red Free) was thawed on ice overnight, dispersed into 48-well plates (100 μl per well) and allowed to polymerize for 30 minutes at 37° C. Serum starved HLECs were seeded on the Matrigel at a density of 1×10^4 cells per well. Images of four representative fields were taken 10 hrs later. […]

LTB4 = test: serum LTB4 levels in lymphedema mice; assay type: in vivo, mouse; conditions: therapies initiated on d3, assessed on d24
Description: as §1
Quantification of LTB4, PGE2 and S1P with LC-MS/MS. Briefly, LTB4, PGE2 and S1P were separated from serum with an ACE reverse phase C18 HPLC column. Formic acid 0.5% in 5 mM NH4Ac (A) and formic acid 0.5% in acetonitrile/water (9/1) (B) were used as the mobile phase. […] The internal standard of this method was Carbutamide. The quantification limit was 1 ng/ml. The calibration range was 1-2000 ng/ml.

## C[C@H](NC(=O)Cc1cc(F)cc(F)c1)C(=O)N[C@H](C(=O)OC(C)(C)C)c1ccccc1 [DAPT]
[1]; DAPT 30 mg/kg added to bestatin 4 mg/kg
  effect of adding DAPT to bestatin-therapy in lymphedema: abrogated the therapeutic benefit of bestatin
HLECs [2]
  HLEC lymphangiogenesis in the presence of S1P, shS1pr1, shDll4 or DAPT: did not abrogate lymphangiogenesis entirely
VEGFR3, Vegfc, Vegfd
  VEGFR3 expression and Vegfc, Vegfd transcription: inhibited

## CCCCC/C=C\C[C@@H](O)/C=C/C=C/C=C\[C@@H](O)CCCC(=O)O [LTB4, leukotriene B4]
HLECs [3]
  LEC apoptosis: induced LEC apoptosis in a concentration-dependent manner
HLECs [4]
  sprout formation in 3D-fibrin-gel assay: preventing them from forming sprouts
HLECs [5]
  HLEC migration: inhibited HLEC migration
HLECs [2]; 100 nm, 200 nm, 400 nm or 800 nm LTB4
  concentration dependence of lymphangiogenesis block: blocked lymphangiogenesis in a concentration-dependent manner
VEGFR3, Vegfc, Vegfd
  VEGFR3 expression and Vegfc, Vegfd transcription: reduced
Notch (NICD, DLL4)
  cleaved Notch (NICD) and DLL4 levels: decreased
[6]
  VEGFR3 expression of HLECs in vivo: inhibited the VEGFR3 expression
[6]; recovered 14d later
  lymphatic vessel formation in vivo: attenuated lymphatic vessel formation
HLECs [7]
  filopodia, nuclear-localized NICD and EphrinB2, cell shape: increased filopodia and less nuclear-localized NICD and EphrinB2
[8]; LTB4 100-800 nm for 24 h
  Notch transcriptional activity (CSL reporter), in words: inhibited Notch transcriptional activity in a dose dependent fashion
[8]; physiologic (400 nM) levels of LTB4
  reduction of reporter activity: > 50%
p-Sphk1
  p-Sphk1 in HLECs: diminished p-Sphk1
HLECs [9]
  tube formation (tube area): decreased tube area

## CCCc1c(OCCCOc2cc(O)c(-c3ccc(F)cc3)cc2CC)cccc1Oc1ccccc1C(=O)O [Ly293111, 2-[2-propyl-3-[3-[2-ethyl-4-(4-fluorophenyl)-5-hydroxyphenoxy]-propoxy]phenoxy]benzoic acid]
[1]; therapies administered prior to sham and lymphedema surgery (bestatin, Ly293111 from d0, shLtb4r1 on d(−7))
  benefit of LTB4 antagonism administered prior to surgery: not beneficial
[1]
  amelioration of lymphedema (serial tail-volume measurements over 24d): demonstrated therapeutic amelioration of lymphedema

## CCCCCCCCCCCCC/C=C/[C@@H](O)[C@@H](N)COP(=O)(O)O [S1P, sphingosine-1-phosphate]
HLECs [2]
  HLEC lymphangiogenesis in the presence of S1P, shS1pr1, shDll4 or DAPT: restored the abnormal HLEC migration, differentiation, sprouting, and vessel formation caused by LTB4
VEGFR3, Vegfc, Vegfd
  VEGFR3 expression and Vegfc, Vegfd transcription: increased the expression of these factors
Notch (NICD, DLL4)
  cleaved Notch (NICD) and DLL4 levels: increased levels
HLECs [7]
  filopodia, nuclear-localized NICD and EphrinB2, cell shape: unified stalk-cell shape and enhanced nuclear localization
[8]; S1P
  increase of reporter activity from base line: 3 fold

## CCCCC/C=C\C[C@@H](O)/C=C/c1cccc(C[C@@H](O)CCCCO)n1 [U75302]
HLECs [9]
  tube formation (tube area): normalized tube formation

## CC(C)Cc1ccc(C(C)C(=O)O)cc1 (centres unmarked) [ibuprofen]
[1]; therapies initiated on d3
  tail swelling: not
[1]; treatment from d3
  tail histology (edema, epidermal/dermal junction): unresolved edema, irregular epidermal/dermal junction

## CC(C(=O)O)c1cccc(C(=O)c2ccccc2)c1 (centres unmarked) [ketoprofen]
LTB4
  serum LTB4 levels: effectively reduced

## CC(c1cc2ccccc2s1)N(O)C(N)=O (centres unmarked) [zileuton, 1-[1-(1-benzothiophen-2-yl)ethyl]-1-hydroxyurea]
[1]
  amelioration of lymphedema (serial tail-volume measurements over 24d): demonstrated therapeutic amelioration of lymphedema
LTB4
  serum LTB4 levels: effectively reduced
